How the values were obtained:
[1] = test system: human hepatocytes; assay: Assay A: Metabolic Stability in Human Hepatocytes; type: in vitro ADME; conditions: cryopreserved human hepatocytes, 10^6 viable cells/mL, 1 μM compound, 37° C.
Procedure, shortened: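 Cryopreserved hepatocytes (10^6 viable cells/mL) at 37° C with 1 μM test compound, sampled 0.5–120 min and quenched in MeCN. Parent measured by LC-MS/MS; CLint (μL/min/10^6 cells) from the slope of ln(parent concentration) vs time.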

[2] = biological target: recombinant 17bHSD13 (N2-K300) (Homo sapiens (Human), UniProt Q7Z5P4); assay: In Vitro 17bHSD13 Enzyme Assay; type: biochemical; conditions: 80 nM 17bHSD13, 0.5 mM NAD, 20 μM Estradiol, 2.5 h; estradiol to estrone by LC-MS/MS
recombinant 17bHSD13 (N2-K300), sequence (Q7Z5P4 2-300): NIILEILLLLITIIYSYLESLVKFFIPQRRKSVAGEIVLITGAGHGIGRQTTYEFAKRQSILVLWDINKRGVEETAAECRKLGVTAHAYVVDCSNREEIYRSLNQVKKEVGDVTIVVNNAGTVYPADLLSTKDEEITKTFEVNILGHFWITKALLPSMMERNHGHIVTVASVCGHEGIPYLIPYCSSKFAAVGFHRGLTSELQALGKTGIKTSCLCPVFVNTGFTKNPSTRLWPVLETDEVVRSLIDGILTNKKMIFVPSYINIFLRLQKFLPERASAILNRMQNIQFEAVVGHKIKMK
Procedure, shortened: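 Human 17bHSD13 (N2-K300, 80 nM) with 0.5 mM NAD, 20 μM estradiol and varied compound in 50 mM Tris-Cl pH 7.4, 5 mM EDTA, 0.01% DDM. Estrone/(estrone+estradiol) ratio read by LC-MS/MS (APCI, positive MRM). Inhibition normalised to DMSO and a known-inhibitor control; IC50 from curve fit.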

[3] = biological target: over expressed HSD17β9 in HEK293S cells (Homo sapiens (Human), UniProt Q92781); assay: In Vitro 17bHSD9 Cell Assay; type: cell-based; conditions: HEK293S cells over expressing HSD17β9; retinol to retinal conversion, 18 h, LC-MS/MS; read-out: 17bHSD9 Cell assay IC50
over expressed HSD17β9 in HEK293S cells, sequence (Q92781 whole entry): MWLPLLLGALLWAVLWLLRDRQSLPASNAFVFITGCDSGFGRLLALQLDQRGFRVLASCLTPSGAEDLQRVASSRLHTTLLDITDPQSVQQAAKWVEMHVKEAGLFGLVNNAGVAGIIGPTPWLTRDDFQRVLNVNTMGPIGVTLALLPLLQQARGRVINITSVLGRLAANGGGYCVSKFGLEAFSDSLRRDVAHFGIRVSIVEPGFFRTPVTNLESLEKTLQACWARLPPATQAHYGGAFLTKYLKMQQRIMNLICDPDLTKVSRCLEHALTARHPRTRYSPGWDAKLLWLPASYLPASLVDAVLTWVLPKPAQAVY
Procedure, shortened: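 HEK293S cells overexpressing HSD17β9 were plated at 10K cells/well in DMEM + 10% FBS and cultured 18 h. Retinol-to-retinal conversion in media was quantified by LC-MS/MS (MRM) as retinal/(retinal + retinol). IC50 was fitted after normalisation to DMSO and full inhibition by a reference inhibitor.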

Structure (SMILES)	IC50 [2] [nM]	IC50 [3] [nM]	Assay A: Human Heps Met Clint GMean CLint (μl/min/1E6) [1] [μl/min/1E6]
CC[C@H]1CN(C(=O)c2noc(-c3cc(F)c(F)c(O)c3F)n2)C[C@@H](C)O1 (racemic) [Example 121, rac-((2R,6S)-2-Ethyl-6-methylmorpholino)(5-(2,4,5-trifluoro-3-hydroxyphenyl)-1,2,4-oxadiazol-3-yl)methanone]	130	16400	6.8
CC(C)[C@H]1CN(C(=O)c2noc(-c3cc(F)c(F)c(O)c3F)n2)C[C@@H](C)O1 (racemic) [Example 122, rac-((2R,6S)-2-isopropyl-6-methylmorpholino)(5-(2,4,5-trifluoro-3-hydroxyphenyl)-1,2,4-oxadiazol-3-yl)methanone]	85	8300	8.8
CC1CN(C(=O)c2noc(-c3cc(F)c(F)c(O)c3F)n2)CC2(CCC2)O1 (racemic) [Example 123, (6-Methyl-5-oxa-8-azaspiro[3.5]nonan-8-yl)(5-(2,4,5-trifluoro-3-hydroxyphenyl)-1,2,4-oxadiazol-3-yl)methanone]	77	30000	8.3
C[C@@H]1CN(C(=O)c2ccc(-c3cc(F)c(F)c(O)c3F)s2)C[C@H](C)O1 [Example 3, ((2R,6S)-2,6-Dimethylmorpholino)(5-(2,4,5-trifluoro-3-hydroxyphenyl)thiophen-2-yl)methanone]	36	> 50000	–
COc1ccccc1C1CCN(C(=O)c2noc(-c3cc(F)c(F)c(O)c3F)n2)C1 (stereo not shown) [Example 4, (3-(2-Methoxyphenyl)pyrrolidin-1-yl)(5-(2,4,5-trifluoro-3-hydroxyphenyl)-1,2,4-oxadiazol-3-yl)methanone]	36	13000	47.4
O=C(c1noc(-c2ccc(F)c(O)c2)n1)N1CC[C@H](c2ccccc2)C1 [Example 11, (R)-(5-(4-Fluoro-3-hydroxyphenyl)-1,2,4-oxadiazol-3-yl)(3-phenylpyrrolidin-1-yl)methanone]	69	> 50000	>300
N#Cc1c(C(=O)N2CCN(CCCOc3ccc(F)cc3)CC2)noc1-c1cc(F)c(F)c(O)c1F [Example 14, 3-(4-(3-(4-Fluorophenoxy)propyl)piperazine-1-carbonyl)-5-(2,4,5-trifluoro-3-hydroxyphenyl)isoxazole-4-carbonitrile]	126	> 50000	14.3
COc1cccc(N2CCN(C(=O)c3noc(-c4cc(F)c(F)c(O)c4F)c3C#N)CC2)c1 [Example 16, 3-(4-(3-Methoxyphenyl)piperazine-1-carbonyl)-5-(2,4,5-trifluoro-3-hydroxyphenyl)isoxazole-4-carbonitrile]	137	> 50000	56.8
N#Cc1ccc2c(c1)CN(C(=O)c1noc(-c3cc(F)c(F)c(O)c3F)c1C#N)CC2 [Example 29, 3-(7-Cyano-1,2,3,4-tetrahydroisoquinoline-2-carbonyl)-5-(2,4,5-trifluoro-3-hydroxyphenyl)isoxazole-4-carbonitrile]	157	16300	16.9
N#Cc1cccc2c1CCN(C(=O)c1noc(-c3c(F)c(O)c(F)c(F)c3Br)n1)C2 [Example 30, 2-(5-(2-Bromo-3,4,6-trifluoro-5-hydroxyphenyl)-1,2,4-oxadiazole-3-carbonyl)-1,2,3,4-tetrahydroisoquinoline-5-carbonitrile]	61	15800	15.6
N#Cc1ccc2c(c1)CCN(C(=O)c1noc(-c3cc(F)c(F)c(O)c3F)n1)C2 [Example 31, 2-(5-(2,4,5-Trifluoro-3-hydroxyphenyl)-1,2,4-oxadiazole-3-carbonyl)-1,2,3,4-tetrahydroisoquinoline-6-carbonitrile]	165	30000	12.6
CC1(C)CN(C(=O)c2noc(-c3cc(F)c(F)c(O)c3F)n2)CC(C)(C)O1 [Example 32, (2,2,6,6-Tetramethylmorpholino)(5-(2,4,5-trifluoro-3-hydroxyphenyl)-1,2,4-oxadiazol-3-yl)methanone]	159	15800	4.1
C[C@@H]1CC[C@H](C)N1C(=O)c1noc(-c2cc(F)c(F)c(O)c2F)n1 [Example 38, ((2R,5S)-2,5-Dimethylpyrrolidin-1-yl)(5-(2,4,5-trifluoro-3-hydroxyphenyl)-1,2,4-oxadiazol-3-yl)methanone]	207	8700	2.1
CC(C)CC1CN(C(=O)c2noc(-c3cc(F)c(F)c(O)c3F)n2)CCO1 (stereo not shown) [Example 47, (2-Isobutylmorpholino)(5-(2,4,5-trifluoro-3-hydroxyphenyl)-1,2,4-oxadiazol-3-yl)methanone]	183	2100	17.4
C[C@@H]1CN(C(=O)c2noc(-c3cc(F)c(F)c(O)c3F)n2)[C@H](C)CO1 [Example 50, ((2R,5R)-2,5-Dimethylmorpholino)(5-(2,4,5-trifluoro-3-hydroxyphenyl)-1,2,4-oxadiazol-3-yl)methanone]	499	39500	4.3
C[C@@H]1C[C@H](C)CN(C(=O)c2nc(-c3cc(F)c(F)c(O)c3F)no2)C1 [Example 111, ((3R,5S)-3,5-Dimethylpiperidin-1-yl)(3-(2,4,5-trifluoro-3-hydroxyphenyl)-1,2,4-oxadiazol-5-yl)methanone]	93	> 50000	–

More lines, in order of falling IC50 [2], values ahead:

IC50 [2] [nM]	IC50 [3] [nM]	Structure (SMILES)	Assay A: Human Heps Met Clint GMean CLint (μl/min/1E6) [1] [μl/min/1E6]
532	> 50000	C[C@@H]1CN(C(=O)c2noc(-c3cc(F)c(F)c(O)c3F)c2C#N)C[C@H](C)O1 [Example 22, 3-((2R,6S)-2,6-Dimethylmorpholine-4-carbonyl)-5-(2,4,5-trifluoro-3-hydroxyphenyl)isoxazole-4-carbonitrile]	6.3
422	24900	O=C(c1noc(-c2cc(C(F)(F)F)[nH]c(=O)c2)n1)N1CCC(c2ccccc2)C1 (stereo not shown) [Example 9, 4-(3-(3-Phenylpyrrolidine-1-carbonyl)-1,2,4-oxadiazol-5-yl)-6-(trifluoromethyl)pyridin-2(1H)-one]	262.2
339	18400	O=C(c1noc(-c2cc(F)c(F)c(O)c2F)n1)N1CC2CCC(C1)C2(F)F [Example 43, (8,8-difluoro-3-azabicyclo[3.2.1]octan-3-yl)(5-(2,4,5-trifluoro-3-hydroxyphenyl)-1,2,4-oxadiazol-3-yl)methanone]	3.3
88	> 50000	O=C(c1noc(-c2cc(F)c(F)c(O)c2F)n1)N1CCN(CCCOc2ccc(F)cc2)CC1 [Example 57, (4-(3-(4-Fluorophenoxy)propyl)piperazin-1-yl)(5-(2,4,5-trifluoro-3-hydroxyphenyl)-1,2,4-oxadiazol-3-yl)methanone]	9.5
82	49600	O=C(c1noc(-c2cc(F)c(F)c(O)c2F)n1)N1CCOC2CCCC21 (stereo not shown) [Example 41, (Hexahydrocyclopenta[b][1,4]oxazin-4(4aH)-yl)(5-(2,4,5-trifluoro-3-hydroxyphenyl)-1,2,4-oxadiazol-3-yl)methanone]	5.9
80	6200	N#Cc1c(C(=O)N2Cc3ccc(F)cc3C2)noc1-c1cc(F)c(F)c(O)c1F [Example 18, 3-(5-Fluoroisoindoline-2-carbonyl)-5-(2,4,5-trifluoro-3-hydroxyphenyl)isoxazole-4-carbonitrile]	17.2
75	> 50000	O=C(c1noc(-c2cc(F)c(F)c(O)c2F)n1)N1CC(Oc2ccccc2)C1 [Example 2, (3-Phenoxyazetidin-1-yl)(5-(2,4,5-trifluoro-3-hydroxyphenyl)-1,2,4-oxadiazol-3-yl)methanone]	14.7
57	10000	C[C@@H]1C[C@H](C)CN(C(=O)c2noc(-c3cc(F)c(F)c(O)c3F)n2)C1 [Example 37, ((3R,5S)-3,5-Dimethylpiperidin-1-yl)(5-(2,4,5-trifluoro-3-hydroxyphenyl)-1,2,4-oxadiazol-3-yl)methanone]	6.7
34	> 50000	O=C(c1ccc(-c2cc(F)c(F)c(O)c2F)s1)N1CC[C@H](c2ccccc2)C1 [Example 33, (R)-(3-Phenylpyrrolidin-1-yl)(5-(2,4,5-trifluoro-3-hydroxyphenyl)thiophen-2-yl)methanone]	124.3
